Laboratory results taken from patent US20070244153A1 (priority 2004, published 2007).

Tests used:
[1] = system: Pseudoperonospora cubensis; assay: Controlling effect against cucumber downy mildew (spray on cucumber seedlings, 250 ppm); type: in vivo; details: 250 ppm spray, cucumber seedling 1-leaf stage, 7th day after inoculation; untreated 60 to 80%
Protocol: A solution of the compound in acetone was diluted with water to 250 ppm, and the solution was sprayed to the cucumber seedling (breed: Sagamihangbak, two per plastic pot having a diameter of 7.5 cm) at 1-leaf stage in an amount of 10 mL of the compound/pot. After air-drying, the pot was transferred to a moist chamber provided in the greenhouse, and inoculated by spray with a zoosporic suspension of Pseudoperonospora cubensis. On the 7th day after inoculation the infected area rate for the leaves was examined. Evaluation was carried out by the following criteria.
The infected area rate for untreated groups in the examination was 60 to 80%.

Phytophthora infestans = type: in vivo; details: 250 ppm spray, tomato seedling 4-leaf stage, 4th day after inoculation; untreated not less than 60%
Plasmopara viticola = assay: Controlling effect against grape downy mildew (leaf disk immersion, 250 ppm); type: in vivo; details: grape leaf disk immersed 3 hours, 10th day after inoculation, untreated 60 to 70%
Protocol: The developed leaf of grape seedling (breed: Cabernet Sauvignon) grown in 1/2000 a pot was cut and prepared a leaf disk having a diameter of 32 mm. A solution of the compound in acetone was diluted with water to 250 ppm, and the leaf disk was immersed for 3 hours. The disk was taken from the agent solution, subjected to air-drying, and then inoculated by spray with a zoosporangia suspension of Plasmopara viticola. The test disk was incubated at 18° C. for 12 hours in a light-dark light cycle. On the 10th day after inoculation the infected area rate for the leaf disk was examined. Evaluation was carried out by the following criteria. The infected area rate for the untreated groups in the examination was 60 to 70%.

Pyricularia oryzae = type: in vivo; details: 250 ppm spray, rice plant 4-leaf stage, 7th to 10th days after inoculation; untreated not less than 60

Compound	Effect: controlling effect against cucumber downy mildew (infected area rate) [1]	Effect: controlling effect against tomato late blight (infected area rate) (Phytophthora infestans)	melting point [°C]	Effect: controlling effect against grape downy mildew (infected area rate) (Plasmopara viticola)	Effect: controlling effect against rice blast disease (number of lesions per pot) (Pyricularia oryzae)
CC(C)OC(=O)N[C@H](C(=O)N[C@H](CNC(=O)c1ccccc1Cl)C(C)C)C(C)C [Compound No. 196, N-[1-(S)-[[(2-chlorobenzoyl)amino]methyl]-2-methylpropyl]3-methyl-2-(S)-[(1-methylethyloxycarbonyl)amino]butyramide]	B (the infected area rate of 5% to less than 50%)	A (Infected area rate of less than 5%)	196.8		
CC(C)COC(=O)N[C@H](C(=O)N[C@H](CNC(=O)c1cccs1)C(C)C)C(C)C [Compound No. 1020, N-[1-(S)-[[(thiophene-2-carbonyl)amino]methyl]-2-methylpropyl]3-methyl-2-(S)-[(2-methylpropyloxycarbonyl)amino]butyramide]	B (the infected area rate of 5% to less than 50%)	B (Infected area rate of 5% to less than 50%)	204.9		
CC(C)OC(=O)N[C@H](C(=O)N[C@H](CNC(=O)c1cccc(Cl)n1)C(C)C)C(C)C [Compound No. 953, N-[1-(S)-[[(6-chloropyridine-2-carbonyl)amino]methyl]-2-methylpropyl]3-methyl-2-(S)-[(1-methylethyloxycarbonyl)amino]butyramide]	A (the infected area rate of less than 5%)	A (Infected area rate of less than 5%)	204.9	A (the infected area rate of less than 5%)	
CC(C)OC(=O)N[C@H](C(=O)N[C@H](CNC(=O)c1cccc2onnc12)C(C)C)C(C)C [Compound No. 929, N-[1-(S)-[(benzoxadiazol-4-yl)carbonylaminomethyl]-2-methylpropyl]3-methyl-2-(S)-[(1-methylethyl)oxycarbonylamino]butyramide]	A (the infected area rate of less than 5%)	A (Infected area rate of less than 5%)	242.9	B (the infected area rate of 5% to less than 50%)	
CC(C)OC(=O)N[C@@H](C)C(=O)N[C@H](CNC(=O)c1cc2ccccc2o1)C(C)C [Compound No. 599, N-[1-(S)-[[(benzofuran-2-carbonyl)amino]methyl]-2-methylpropyl]2-(S)-[(1-methylethyloxycarbonyl)amino]propionamide]	A (the infected area rate of less than 5%)	A (Infected area rate of less than 5%)	146.4	A (the infected area rate of less than 5%)	
C=COC(=O)N[C@H](C(=O)N[C@H](CNC(=O)c1cc2ccccc2o1)C(C)C)C(C)C [Compound No. 782, N-[1-(S)-[[(benzofuran-2-carbonyl)amino]methyl]-2-methylpropyl]3-methyl-2-(S)-[(vinyloxycarbonyl)amino]butyramide]	A (the infected area rate of less than 5%)	A (Infected area rate of less than 5%)	192.7	A (the infected area rate of less than 5%)	
CC(C)[C@@H](CNC(=O)c1cc2ccccc2o1)NC(=O)C(C)(C)NC(=O)OC(C)(C)C			140.5		
Cc1ccc(C(=O)NC[C@@H](NC(=O)Oc2ccccc2)C(C)C)cc1 [Comparative Compound, reference compound]	C (the infected area rate of not less than 50%)	C (Infected area rate of not less than 50%)		C (the infected area rate of not less than 50%)	A (The number of lesions of less than 5)
CC(CNC(=O)c1cc2ccccc2o1)NC(=O)[C@@H](NC(=O)OC(C)(C)C)C(C)C (mixture of isomers) [Compound No. 652, N-[2-(RS)-[[(benzofuran-2-carbonyl)amino]-1-methyl]ethyl][3-methyl-2-(S)-[N-(1,1-dimethylethyloxycarbonyl)amino]]butyramide]	A (the infected area rate of less than 5%)	A (Infected area rate of less than 5%)		B (the infected area rate of 5% to less than 50%)	
CC[C@H](C)[C@@H](CNC(=O)c1ccc2ccccc2n1)NC(=O)[C@@H](NC(=O)OC)C(C)C [Compound No. 698, N-[1-(S)-[[(quinoline-2-carbonyl)amino]methyl]-2-(S)-methylbutyl]2-(S)-(methyloxycarbonylamino)-3-methylbutyramide]	A (the infected area rate of less than 5%)	A (Infected area rate of less than 5%)	174.6	B (the infected area rate of 5% to less than 50%)	
CC(C)[C@H](NC(=O)OCc1ccccc1)C(=O)NC[C@@H](NC(=O)c1cc2ccccc2o1)C(C)C [Compound No. 678, N-[3-methyl-2-(S)-[(benzofuran-2-carbonyl)amino]butyl]2-(S)-[(benzyloxycarbonyl)amino]-3-methylbutyramide]	A (the infected area rate of less than 5%)	B (Infected area rate of 5% to less than 50%)		B (the infected area rate of 5% to less than 50%)	
C#CC[C@H](NC(=O)OCC(C)C)C(=O)N[C@H](CNC(=O)c1ccc(C)cc1)C(C)C [Compound No. 76, N-[2-methyl-1-(S)-[[(4-methylbenzoyl)amino]methyl]propyl]2-(S)-[(2-methylpropyloxycarbonyl)amino]-4-pentynamide]		A (Infected area rate of less than 5%)	215.1		
CC(C)[C@@H](CNC(=O)c1cc2ccccc2o1)NC(=O)[C@H](C)NC(=O)OC(C)(C)C [Compound No. 601, N-[1-(S)-[[(benzofuran-2-carbonyl)amino]methyl]-2-methylpropyl]2-(S)-[(1,1-dimethylethyloxycarbonyl)amino]propionamide]	A (the infected area rate of less than 5%)	B (Infected area rate of 5% to less than 50%)	163.1	B (the infected area rate of 5% to less than 50%)	
